These results are taken from PubChem BioAssay (NCI).

Among the test systems are SF-295 CNS; NCI-H460 lung; SK-OV-3 ovarian; UACC-62 melanoma; A549 NSCLC; SF-268 CNS; EKVX NSCLC; PC-3 prostate.
What all share (assay): DTP human tumour cell line panel, 48 h

Each structure is given as a SMILES string.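 Test compounds were applied to cells in 96-well plates for 48 hours at 5 doses. Abbreviation: GI50, concentration required for 50% inhibition of growth. At the TGI there is no net growth.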 Where only a bound is given, the exact number is not on record here.

The term GI50 denotes the concentration giving 50% growth inhibition. For orientation: TGI means the concentration giving total growth inhibition. Low readings indicate more potent growth arrest, high ones less potent growth arrest.

Take `CCN1C(=O)N(CC)C2C1NN=c1s/c(=C3\C(=O)Nc4ccccc43)c(=O)n12` (stereo not given): the GI50 with SF-295 CNS is 0.463 µM; in the experiment with NCI-H460 lung it was 0.397 µM; in the experiment on SK-OV-3 ovarian it was 0.781 µM; in the experiment with UACC-62 melanoma it was 0.371 µM; in the experiment on A549 NSCLC it was 0.812 µM; in the experiment on SF-268 CNS, 10.6 µM. The GI50 in the experiment with EKVX NSCLC is 2.12 µM; in the experiment with PC-3 prostate, 0.393 µM. The TGI in the experiment on SF-295 CNS is 12.4 µM; in the experiment on NCI-H460 lung it was greater than 100 µM; in the experiment on SK-OV-3 ovarian it was 29.6 µM; with UACC-62 melanoma, 23.9 µM; with A549 NSCLC it was greater than 100 µM; in the experiment on SF-268 CNS it was 45.1 µM. For the same compound, the TGI in the experiment on EKVX NSCLC and with PC-3 prostate was greater than 100 µM throughout.

On to `N[C@H]1CCC[C@@H](O)C1O` (stereo not given in full), for which the total growth inhibition concentration (TGI) in the experiment on SF-295 CNS, with NCI-H460 lung, in the experiment on SK-OV-3 ovarian, in the experiment with UACC-62 melanoma, in the experiment with A549 NSCLC and in the experiment on SF-268 CNS was greater than 100 µM each time. Further, the TGI in the experiment on EKVX NSCLC and in the experiment with PC-3 prostate was greater than 100 µM each time.

In the case of `CC(C)(C)OC(=O)N(CCCCN(CCCn1c2c(c3ccccc3c1=O)C(=O)c1ccccc1-2)C(=O)OC(C)(C)C)CCCn1c2c(c3ccccc3c1=O)C(=O)c1ccccc1-2`, the GI50 in the experiment with SF-295 CNS is 14 µM; with NCI-H460 lung it was 6.32 µM; in the experiment with SK-OV-3 ovarian, greater than 100 µM; with UACC-62 melanoma it was 92.8 µM; with A549 NSCLC, 18.9 µM; with SF-268 CNS, 58.5 µM. The GI50 with PC-3 prostate is 27.7 µM. The TGI in the experiment on SF-295 CNS was greater than 100 µM; in the experiment with NCI-H460 lung, 19.3 µM; in the experiment on SK-OV-3 ovarian, greater than 100 µM; in the experiment with UACC-62 melanoma, greater than 100 µM; in the experiment with A549 NSCLC it was greater than 100 µM; in the experiment with SF-268 CNS, greater than 100 µM. In the experiment on PC-3 prostate, this compound returned a TGI greater than 100 µM.

In the case of `COc1ccc(C2=C(OC(C)=O)c3cccn3-c3ccc(Cl)cc3S2)cc1`, the concentration for total growth inhibition (TGI) with SF-295 CNS, in the experiment on SK-OV-3 ovarian, in the experiment with UACC-62 melanoma, in the experiment on A549 NSCLC, in the experiment with SF-268 CNS and in the experiment on EKVX NSCLC was greater than 10 µM throughout. Also, in the experiment with PC-3 prostate, the concentration for total growth inhibition (TGI) is greater than 10 µM.

On to `CN(c1cccc(C(=O)O)c1)c1cc(O/N=[N+](\[O-])N(C)C)c([N+](=O)[O-])cc1[N+](=O)[O-]`, for which the GI50 in the experiment on SF-295 CNS is greater than 100 µM; with NCI-H460 lung it was greater than 100 µM; in the experiment on UACC-62 melanoma, greater than 100 µM; in the experiment on A549 NSCLC it was greater than 100 µM; with SF-268 CNS it was 55.5 µM; with EKVX NSCLC, greater than 100 µM. Moreover, the GI50 with PC-3 prostate was greater than 100 µM. Moreover, the total growth inhibition concentration (TGI) with SF-295 CNS, in the experiment on NCI-H460 lung, in the experiment on UACC-62 melanoma, in the experiment with A549 NSCLC, in the experiment with SF-268 CNS and with EKVX NSCLC was greater than 100 µM throughout. In the experiment on PC-3 prostate, the TGI was greater than 100 µM.

Regarding `CN(C)S(=O)(=O)c1cccc(C(=O)Nc2nc(-c3ccc(F)c(F)c3)cs2)c1`, the GI50 in the experiment with SF-295 CNS is 2.58 µM; in the experiment on NCI-H460 lung, 12.8 µM; with SK-OV-3 ovarian, 35.7 µM; with UACC-62 melanoma, 7.81 µM; with A549 NSCLC, 13.2 µM; with SF-268 CNS it was 13.9 µM. The values for the GI50 in the experiment with EKVX NSCLC and in the experiment on PC-3 prostate were 4 µM and 5.96 µM, respectively. For the same compound, the TGI was 26.4 µM in the experiment on SF-295 CNS; greater than 100 µM in the experiment on NCI-H460 lung; greater than 100 µM in the experiment with SK-OV-3 ovarian; greater than 100 µM in the experiment on UACC-62 melanoma; greater than 100 µM in the experiment with A549 NSCLC; greater than 100 µM with SF-268 CNS. The TGI is greater than 76.2 µM in the experiment on EKVX NSCLC and greater than 100 µM with PC-3 prostate.

Regarding `COc1ccc([N+](=O)[O-])c2c(NCCCN(C)C)c(C)c(C)nc12`, the concentration for total growth inhibition (TGI) with SF-295 CNS, in the experiment with NCI-H460 lung, in the experiment with SK-OV-3 ovarian, in the experiment with UACC-62 melanoma, with A549 NSCLC and with SF-268 CNS was greater than 100 µM in each case. In the experiment on PC-3 prostate, this compound gave a TGI greater than 100 µM.

Take `CNc1c2ccccc2nc2occ(Cl)c12`: the GI50 is 20.6 µM in the experiment with SF-295 CNS; 21.8 µM in the experiment with NCI-H460 lung; 36.8 µM in the experiment with SK-OV-3 ovarian; 33.3 µM in the experiment on UACC-62 melanoma; 31 µM in the experiment on A549 NSCLC; 26.8 µM in the experiment with SF-268 CNS. Also, in the experiment with PC-3 prostate, the GI50 is 26.5 µM. The concentration for total growth inhibition (TGI) with SF-295 CNS is 88.2 µM; in the experiment on NCI-H460 lung, 72.1 µM; with SK-OV-3 ovarian it was greater than 100 µM; in the experiment on UACC-62 melanoma, greater than 100 µM; with A549 NSCLC it was greater than 100 µM; in the experiment on SF-268 CNS it was greater than 100 µM. In the experiment on PC-3 prostate, the concentration for total growth inhibition (TGI) was greater than 100 µM.

With `COc1ccc(/C=C\c2cc(OC)c(OC)c(OC)c2)cc1NC(=O)/C=C/c1ccc(OC)c(OC)c1`, the GI50 in the experiment on NCI-H460 lung is 3.46 µM; in the experiment with SK-OV-3 ovarian, 0.0736 µM; in the experiment on UACC-62 melanoma, 3.67 µM; in the experiment on A549 NSCLC, 4.89 µM; with SF-268 CNS it was 7.29 µM; in the experiment on EKVX NSCLC it was greater than 100 µM. Moreover, the GI50 in the experiment with PC-3 prostate is 3.9 µM. Further, the concentration for total growth inhibition (TGI) in the experiment with NCI-H460 lung was greater than 100 µM; in the experiment on SK-OV-3 ovarian it was 0.676 µM; with UACC-62 melanoma, greater than 100 µM; with A549 NSCLC it was greater than 100 µM; in the experiment with SF-268 CNS it was greater than 100 µM; with EKVX NSCLC, greater than 100 µM. Moreover, in the experiment with PC-3 prostate, the TGI was greater than 100 µM.

`O=C(O)c1cccc([As]=[As]c2cccc(C(=O)O)c2)c1` (stereo not given): the total growth inhibition concentration (TGI) in the experiment with SF-295 CNS is greater than 100 µM; with NCI-H460 lung it was greater than 100 µM; in the experiment with UACC-62 melanoma, greater than 100 µM; in the experiment with A549 NSCLC it was greater than 100 µM; in the experiment on SF-268 CNS, 72.7 µM; in the experiment on EKVX NSCLC, greater than 100 µM. Also, the TGI in the experiment with PC-3 prostate is 36.7 µM.

In the case of `CCN(Cc1ccc(Cl)c(Cl)c1)c1ccc2nc(N)nc(N)c2c1C`, the 50% growth inhibitory concentration (GI50) is less than 0.01 µM in the experiment on SF-295 CNS; less than 0.01 µM in the experiment with NCI-H460 lung; 0.172 µM in the experiment with SK-OV-3 ovarian; 0.0351 µM in the experiment on SF-268 CNS; 0.0284 µM in the experiment with PC-3 prostate. The total growth inhibition concentration (TGI) with NCI-H460 lung was 1.47 µM; with SK-OV-3 ovarian it was 2.22 µM; in the experiment with SF-268 CNS it was 1.69 µM; in the experiment on EKVX NSCLC it was 2.82 µM; in the experiment on PC-3 prostate, 3.16 µM.

With `Nc1c(C(=O)c2cccc(-c3cccnc3)c2)cnn1-c1ccc(F)cc1`, the GI50 in the experiment on SF-295 CNS was greater than 25 µM; in the experiment on NCI-H460 lung, greater than 25 µM; with SK-OV-3 ovarian it was greater than 25 µM; in the experiment on UACC-62 melanoma, greater than 25 µM; with A549 NSCLC, greater than 25 µM; in the experiment with SF-268 CNS, greater than 20.9 µM. Also, the GI50 with PC-3 prostate is greater than 25 µM. Moreover, the TGI in the experiment on SF-295 CNS, with NCI-H460 lung, with SK-OV-3 ovarian, with UACC-62 melanoma, in the experiment on A549 NSCLC and in the experiment with SF-268 CNS was greater than 25 µM throughout. The compound also displayed a concentration for total growth inhibition (TGI) with PC-3 prostate greater than 25 µM.

Turning to `Cc1cc(NC(=O)NCCOc2ccc(N3C(N)=NC(N)=NC3(C)C)cc2Cl)ccc1S(=O)(=O)F`, the GI50 was 5.16 µM in the experiment on SF-295 CNS; 0.391 µM in the experiment with NCI-H460 lung; 12 µM in the experiment with SK-OV-3 ovarian; 0.726 µM in the experiment on UACC-62 melanoma; 1.4 µM in the experiment on A549 NSCLC; 1.64 µM in the experiment with SF-268 CNS. The GI50 with PC-3 prostate is 0.143 µM. The concentration for total growth inhibition (TGI) in the experiment with SF-295 CNS is greater than 85.1 µM; in the experiment with NCI-H460 lung, 17.6 µM; in the experiment with SK-OV-3 ovarian, greater than 100 µM; in the experiment with UACC-62 melanoma it was 35.2 µM; in the experiment with A549 NSCLC, greater than 68.3 µM; in the experiment on SF-268 CNS, 99.5 µM. This compound displayed a TGI with PC-3 prostate of 22.3 µM.

Regarding `CN[C@@H](C)C(=O)N[C@H](C(=O)N1CCC[C@H]1c1nc(C(=O)c2ccc(F)cc2)cs1)C1CCCCC1`, the GI50 is 19.4 µM with SF-295 CNS; 27.8 µM in the experiment with NCI-H460 lung; 16.6 µM with UACC-62 melanoma; 35.2 µM in the experiment on A549 NSCLC; 46.9 µM in the experiment on SF-268 CNS; 24.1 µM with PC-3 prostate. Further, the TGI with SF-295 CNS is 46.1 µM; in the experiment on NCI-H460 lung it was greater than 72.8 µM; with UACC-62 melanoma it was 35.2 µM; with A549 NSCLC it was greater than 100 µM; with SF-268 CNS, greater than 100 µM; in the experiment with PC-3 prostate, greater than 73.6 µM.

With `OCc1c(-c2cccs2)oc(-c2cccs2)c1CO`, the GI50 was 27.7 µM with SF-295 CNS; 28.4 µM in the experiment with NCI-H460 lung; 35.3 µM in the experiment on UACC-62 melanoma; 54.9 µM in the experiment with A549 NSCLC; 35 µM in the experiment with SF-268 CNS; 34.6 µM in the experiment with EKVX NSCLC. The GI50 in the experiment with PC-3 prostate is 37.7 µM. The TGI in the experiment with SF-295 CNS, with NCI-H460 lung, in the experiment with UACC-62 melanoma, with A549 NSCLC, in the experiment with SF-268 CNS and in the experiment with EKVX NSCLC was greater than 100 µM throughout. The TGI with PC-3 prostate is greater than 100 µM.

Consider `O=C1OC(C(O)CO)C(C(O)CO)OC1=O` (stereo not given), for which the TGI in the experiment with SF-295 CNS, with NCI-H460 lung, in the experiment on UACC-62 melanoma, with A549 NSCLC, with SF-268 CNS and with EKVX NSCLC was greater than 10 µM in each case. The compound further yielded a TGI in the experiment on PC-3 prostate greater than 10 µM.

Turning to `COc1ccc(-c2nc(NC(=O)CS(=O)(=O)c3ccc(F)cc3)sc2C)cc1`, the GI50 with SF-295 CNS was 18.8 µM; in the experiment on NCI-H460 lung, 20.1 µM; in the experiment on SK-OV-3 ovarian, 24.1 µM; with UACC-62 melanoma, 13.1 µM; in the experiment on SF-268 CNS, 28.7 µM; in the experiment on PC-3 prostate, 21.1 µM. In addition, the TGI is 50.1 µM in the experiment on SF-295 CNS; 51.5 µM with NCI-H460 lung; greater than 100 µM in the experiment with SK-OV-3 ovarian; 32.9 µM in the experiment with UACC-62 melanoma; greater than 100 µM with SF-268 CNS; 94.7 µM with PC-3 prostate.
